Source: paper PMC6274106, “Evaluation and Comparison of the Inhibition Effect of Astragaloside IV and Aglycone Cycloastragenol on Various UDP-Glucuronosyltransferase (UGT) Isoforms” (Molecules, 2016)

Columns and labels:
Format in all cases: biochemical
UGT2B7 [1] = biological target: T1, UGT2B7 (Homo sapiens, UniProt P16662); test: 4-MU glucuronidation screen, […] inhibition at […]
T1 construct: recombinant human UGT supersomes (baculovirus-infected insect cells)
T1 sequence (P16662 24-529): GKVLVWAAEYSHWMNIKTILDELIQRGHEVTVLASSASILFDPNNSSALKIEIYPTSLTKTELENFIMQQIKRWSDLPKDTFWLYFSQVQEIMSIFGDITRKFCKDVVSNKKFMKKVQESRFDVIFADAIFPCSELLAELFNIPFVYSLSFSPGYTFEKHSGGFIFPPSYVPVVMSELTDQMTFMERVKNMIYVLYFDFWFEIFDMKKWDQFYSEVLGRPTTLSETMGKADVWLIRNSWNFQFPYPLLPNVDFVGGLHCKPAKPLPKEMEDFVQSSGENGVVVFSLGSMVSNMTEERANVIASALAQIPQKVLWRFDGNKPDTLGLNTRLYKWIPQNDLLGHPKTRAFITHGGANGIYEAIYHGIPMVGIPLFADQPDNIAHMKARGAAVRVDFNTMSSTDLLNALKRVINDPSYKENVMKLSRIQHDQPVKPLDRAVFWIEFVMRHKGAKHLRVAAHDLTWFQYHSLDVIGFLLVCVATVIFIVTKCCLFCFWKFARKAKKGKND

UGT1A1 = biological target: T2, UGT1A1 (Homo sapiens, UniProt P22309); test: 4-MU glucuronidation screen, […] inhibition at […]
T2 construct: recombinant human UGT supersomes (baculovirus-infected insect cells)
T2 sequence (P22309 26-533): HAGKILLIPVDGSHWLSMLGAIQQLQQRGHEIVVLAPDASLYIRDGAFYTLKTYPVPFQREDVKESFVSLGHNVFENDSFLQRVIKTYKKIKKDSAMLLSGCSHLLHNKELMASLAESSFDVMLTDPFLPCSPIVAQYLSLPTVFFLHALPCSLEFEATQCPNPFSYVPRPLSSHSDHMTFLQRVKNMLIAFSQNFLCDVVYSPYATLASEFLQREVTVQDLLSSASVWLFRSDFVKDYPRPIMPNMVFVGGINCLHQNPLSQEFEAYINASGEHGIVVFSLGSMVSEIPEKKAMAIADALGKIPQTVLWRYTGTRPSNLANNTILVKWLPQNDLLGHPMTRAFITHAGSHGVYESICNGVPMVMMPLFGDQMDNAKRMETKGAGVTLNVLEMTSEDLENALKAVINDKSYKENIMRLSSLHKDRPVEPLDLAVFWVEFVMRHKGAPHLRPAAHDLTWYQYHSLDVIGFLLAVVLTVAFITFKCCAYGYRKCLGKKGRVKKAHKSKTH

UGT1A8 = biological target: T3, UGT1A8 (Homo sapiens, UniProt Q9HAW9); test: 4-MU glucuronidation by recombinant UGT supersomes, UPLC-UV; Dixon and Lineweaver-Burk plots (IC50 […])
T3 construct: recombinant human UGT supersomes (baculovirus-infected insect cells)
T3 sequence (Q9HAW9 26-530): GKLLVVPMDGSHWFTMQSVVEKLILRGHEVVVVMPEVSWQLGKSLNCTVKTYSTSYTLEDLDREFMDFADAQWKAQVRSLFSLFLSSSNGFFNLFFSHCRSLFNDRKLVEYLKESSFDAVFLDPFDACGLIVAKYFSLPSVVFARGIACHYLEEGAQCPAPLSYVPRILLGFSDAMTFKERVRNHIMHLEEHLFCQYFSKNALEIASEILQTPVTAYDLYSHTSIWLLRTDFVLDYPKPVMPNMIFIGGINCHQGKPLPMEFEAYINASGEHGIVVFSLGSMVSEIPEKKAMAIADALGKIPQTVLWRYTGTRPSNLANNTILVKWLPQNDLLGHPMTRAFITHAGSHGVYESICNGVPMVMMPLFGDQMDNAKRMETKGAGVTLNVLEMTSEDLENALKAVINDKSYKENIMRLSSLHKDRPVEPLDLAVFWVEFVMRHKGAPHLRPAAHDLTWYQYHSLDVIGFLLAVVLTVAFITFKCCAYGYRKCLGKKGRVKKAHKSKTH

UGT1A3 = biological target: T4, UGT1A3 (Homo sapiens, UniProt P35503); test: 4-MU glucuronidation screen, […] inhibition at […]
T4 construct: recombinant human UGT supersomes (baculovirus-infected insect cells)
T4 sequence (P35503 29-534): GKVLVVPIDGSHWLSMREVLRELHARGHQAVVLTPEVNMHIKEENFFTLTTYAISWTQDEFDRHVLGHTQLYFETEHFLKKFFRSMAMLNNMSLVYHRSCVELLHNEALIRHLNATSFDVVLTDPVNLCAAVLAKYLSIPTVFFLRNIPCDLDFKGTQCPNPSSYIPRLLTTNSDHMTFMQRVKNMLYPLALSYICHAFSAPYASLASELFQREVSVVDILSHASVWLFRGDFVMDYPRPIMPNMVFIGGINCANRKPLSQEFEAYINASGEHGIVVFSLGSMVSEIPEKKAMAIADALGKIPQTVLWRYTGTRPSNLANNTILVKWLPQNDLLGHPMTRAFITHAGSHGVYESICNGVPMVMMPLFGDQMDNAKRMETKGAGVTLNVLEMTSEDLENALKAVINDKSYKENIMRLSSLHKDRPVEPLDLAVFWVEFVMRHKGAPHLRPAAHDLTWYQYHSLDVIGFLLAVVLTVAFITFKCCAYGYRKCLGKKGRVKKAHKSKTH

UGT2B7 [2] = biological target: T1, UGT2B7; test: 4-MU glucuronidation by recombinant UGT supersomes, UPLC-UV; Dixon and Lineweaver-Burk plots (IC50 […])

Structure (SMILES)	inhibition at 100 µM (UGT2B7 [1]) [%]	inhibition at 100 µM (UGT1A1) [%]	Ki (UGT1A8) [µM]	inhibition at 100 µM (UGT1A3) [%]	Ki (UGT2B7 [2]) [µM]
CC(C)(O)[C@@H]1CC[C@](C)([C@H]2[C@@H](O)C[C@@]3(C)[C@@H]4C[C@H](O[C@@H]5O[C@H](CO)[C@@H](O)[C@H](O)[C@H]5O)[C@H]5C(C)(C)[C@@H](O[C@@H]6OC[C@@H](O)[C@H](O)[C@H]6O)CC[C@@]56C[C@@]46CC[C@]23C)O1 [AST, astragaloside IV]	51.5	–	–	–	–
CC(C)(O)[C@@H]1CC[C@](C)([C@H]2[C@@H](O)C[C@@]3(C)[C@@H]4C[C@H](O)[C@H]5C(C)(C)[C@@H](O)CC[C@@]56C[C@@]46CC[C@]23C)O1 [CAG, cycloastragenol]	–	50.2	0.034	75.2	21
